# From patent US7792665B2, “Method for designing a compound based on the three dimensional structure of phosphoinositide dependent protein kinase 1 (PDK1)” (Medical Research Council, priority 2002, dated 2010)
# Positions count from the first letter of the chain named. “Also recorded” adds a separate entry of the source.
# Columns and labels:
# [1] = molecular target: T1, PDK1 (Homo sapiens, UniProt O15530); assay: PDK1 protein kinase assay with PDK1tide substrate and [γ-32P]ATP; format: biochemical; conditions: 1 μM inhibitor, 0.1 mM ATP, average of triplicate
# T1 sequence (O15530 1-556): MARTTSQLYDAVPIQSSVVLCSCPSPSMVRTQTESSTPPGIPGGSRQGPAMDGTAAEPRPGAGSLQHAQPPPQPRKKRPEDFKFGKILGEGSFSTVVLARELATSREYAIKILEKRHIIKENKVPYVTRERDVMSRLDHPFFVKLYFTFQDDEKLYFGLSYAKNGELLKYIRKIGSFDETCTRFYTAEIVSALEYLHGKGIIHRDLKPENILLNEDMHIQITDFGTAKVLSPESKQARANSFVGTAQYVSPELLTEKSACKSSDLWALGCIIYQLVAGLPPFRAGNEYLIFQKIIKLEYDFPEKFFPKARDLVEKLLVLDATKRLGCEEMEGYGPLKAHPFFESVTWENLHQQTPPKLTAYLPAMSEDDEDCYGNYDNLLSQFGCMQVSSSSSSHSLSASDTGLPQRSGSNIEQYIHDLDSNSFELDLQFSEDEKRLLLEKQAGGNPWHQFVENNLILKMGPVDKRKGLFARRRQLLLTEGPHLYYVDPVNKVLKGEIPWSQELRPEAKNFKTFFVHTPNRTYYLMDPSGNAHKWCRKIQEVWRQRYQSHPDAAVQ
# Description: (§1) Other protein kinases employed in Table 5, were assayed as described previously.
# A structure-based sequence alignment of known kinase structures was obtained from, which was used to validate the sequence-based sequence alignment (Table 5).
# [2] = molecular target: T2, CHK1 (Homo sapiens, UniProt O14757); assay: Kinase panel assay, CHK1; format: biochemical; conditions: 1 μM inhibitor, 0.1 mM ATP, average of triplicate
# T2 sequence (O14757 1-476): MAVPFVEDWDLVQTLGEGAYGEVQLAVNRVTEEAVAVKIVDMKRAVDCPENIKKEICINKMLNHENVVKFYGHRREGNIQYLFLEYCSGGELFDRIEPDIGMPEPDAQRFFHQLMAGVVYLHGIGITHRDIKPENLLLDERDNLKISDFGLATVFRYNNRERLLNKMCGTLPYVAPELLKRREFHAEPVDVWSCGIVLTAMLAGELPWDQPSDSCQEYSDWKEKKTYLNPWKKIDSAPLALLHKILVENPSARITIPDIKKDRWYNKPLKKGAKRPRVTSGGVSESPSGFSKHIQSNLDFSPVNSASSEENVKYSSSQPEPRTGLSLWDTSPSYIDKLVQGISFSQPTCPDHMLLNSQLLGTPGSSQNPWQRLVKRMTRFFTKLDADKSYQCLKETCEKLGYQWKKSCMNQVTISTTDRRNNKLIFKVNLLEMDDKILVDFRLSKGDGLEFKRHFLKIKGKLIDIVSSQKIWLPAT
# [3] = test system: AMPK; assay: Kinase panel assay, AMPK; format: biochemical; conditions: 1 μM inhibitor, 0.1 mM ATP, average of triplicate
# Description: as §1
# [4] = molecular target: PKBΔPH (Homo sapiens, UniProt P31749); assay: biochemical; conditions: read-out: percentage of kinase activity compared to control incubations, PKBΔPH
# Description: as §1
# [5] = molecular target: ROCK-II (Homo sapiens, UniProt O75116); assay: Kinase panel assay, ROCK-II; format: biochemical; conditions: 1 μM inhibitor, 0.1 mM ATP, average of triplicate
# [6] = molecular target: MSK1 (Homo sapiens, UniProt O75582); assay: Kinase panel assay, MSK1; format: biochemical; conditions: 1 μM inhibitor, 0.1 mM ATP, average of triplicate
# [7] = molecular target: MKK1 (Homo sapiens, UniProt Q02750); assay: Kinase panel assay, MKK1; format: biochemical; conditions: 1 μM inhibitor, 0.1 mM ATP, average of triplicate
# [8] = molecular target: CSK (Homo sapiens, UniProt P41240); assay: Kinase panel assay, CSK; format: biochemical; conditions: 1 μM inhibitor, 0.1 mM ATP, average of triplicate
# [9] = molecular target: SAPK4/p38δ (Homo sapiens, UniProt O15264); assay: Kinase panel assay, SAPK4/p38δ; format: biochemical; conditions: 1 μM inhibitor, 0.1 mM ATP, average of triplicate
# [10] = molecular target: PRAK (Homo sapiens, UniProt Q8IW41); assay: Kinase panel assay, PRAK; format: biochemical; conditions: 1 μM inhibitor, 0.1 mM ATP, average of triplicate
# [11] = molecular target: MAPKAP-K1a (Homo sapiens, UniProt Q15418); assay: Kinase panel assay, MAPKAP-K1a; format: biochemical; conditions: 1 μM inhibitor, 0.1 mM ATP, average of triplicate
# [12] = molecular target: SGK1 (Homo sapiens, UniProt O00141); assay: Kinase panel assay, SGK1; format: biochemical; conditions: 1 μM inhibitor, 0.1 mM ATP, average of triplicate
# [13] = molecular target: JNKSAPK1c (Homo sapiens, UniProt P45983); assay: Kinase panel assay, JNKSAPK1c; format: biochemical; conditions: 1 μM inhibitor, 0.1 mM ATP, average of triplicate
# [14] = molecular target: SAPK2α/p38 (Homo sapiens, UniProt Q16539); assay: Kinase panel assay, SAPK2α/p38; format: biochemical; conditions: 1 μM inhibitor, 0.1 mM ATP, average of triplicate
# [15] = molecular target: SAPK2β/p38β2 (Homo sapiens, UniProt Q15759); assay: Kinase panel assay, SAPK2β/p38β2; format: biochemical; conditions: 1 μM inhibitor, 0.1 mM ATP, average of triplicate
# [16] = molecular target: CK2 (Homo sapiens, UniProt P68400); assay: Kinase panel assay, CK2; format: biochemical; conditions: 1 μM inhibitor, 0.1 mM ATP, average of triplicate
# [17] = test system: CK1; assay: Kinase panel assay, CK1; format: biochemical; conditions: 1 μM inhibitor, 0.1 mM ATP, average of triplicate
# [18] = molecular target: NEK6 (Homo sapiens, UniProt Q9HC98); assay: Kinase panel assay, NEK6; format: biochemical; conditions: 1 μM inhibitor, 0.1 mM ATP, average of triplicate
# [19] = molecular target: S6K-pHM, phosphopeptide comprising the hydrophobic motif of S6K1; assay: SPR (BiaCore), against wild type PDK1
# [20] = molecular target: S6K-pHM, phosphopeptide comprising the hydrophobic motif of S6K1; assay: SPR (BiaCore), rounded value
# [21] = molecular target: S6K-pHM, phosphopeptide comprising the hydrophobic motif of S6K1; assay: SPR (BiaCore 3000), biotinylated S6K-pHM on SA chip, GST-PDK1 injected at 2-2150 nM, steady state, apparent Kd
# [22] = molecular target: T3, PDK1[K76A] (Homo sapiens, UniProt O15530, K76A); assay: PDK1 catalytic activity towards T308tide, activation by peptides, PDK1[K76A]; format: biochemical; conditions: high peptide concentrations
# T3 construct: made in house; host or cells: human embryonic kidney 293 cells (pEBG2T vector)
# T3 sequence (O15530 1-556 K76A): T1 sequence (O15530 1-556) with K76A
# Description: (§2) C. Activation of the indicated forms of PDK1 by 56K-pHM and S6K-HM. PDK1 activity was measured using the peptide substrate (T308tide) in the presence of the indicated concentrations of 56K-pHM (closed circles) and S6K-HM (open circles) as described in the methods. Assays were performed in triplicate and similar results obtained in 2 separate experiments. The results are the average—SD for a single experiment.
# The ability of wild type and mutant PDK1 to phosphorylate the synthetic peptide T308tide ([…] ([Biondi et al., 2000]) (SEQ ID NO:108) was carried out in 30 μl assays containing 100 ng of wild type or mutant PDK1, 50 mM Tris/HCl pH 7.5, 0.1% 13-mercaptoethanol, 10 mM MgCl2, 100 μM [32γ P]ATP (200 cpm/pmol), 0.5 μM microcystin-LR, 1 mM T308tide in the presence or absence of the indicated concentrations of the 56K-pHM peptide ([…](P)YVAPSV) (SEQ ID NO:104) or 56K-HM. peptide ([…]) (SEQ ID NO:105). After incubation for 10 min at 30° C., 25 μl of the resultant mixture was spotted into P81 phosphocellulose paper (2×2 cm) and the papers washed and analysed as described previously for assays of MAP kinase. Control assays were carried out in parallel in which either PDK1, or peptide substrate were omitted; these values were always less than 5% of the activity measured in the presence of these reagents. […]
# [23] = molecular target: T4, PDK1[R131A] (Homo sapiens, UniProt O15530, R131A); assay: PDK1 catalytic activity towards T308tide, activation by peptides, PDK1[R131A]; format: biochemical; conditions: high peptide concentrations
# T4 construct: GST (N); made in house; host or cells: human embryonic kidney 293 cells (pEBG2T vector)
# T4 sequence (O15530 1-556 R131A): T1 sequence (O15530 1-556) with R131A
# Description: as §2
# The ability of wild type and mutant PDK1 to phosphorylate the synthetic peptide T308tide ([…] ([Biondi et al., 2000]) (SEQ ID NO:108) was carried out in 30 μl assays containing 100 ng of wild type or mutant PDK1, 50 mM Tris/HCl pH 7.5, 0.1% 13-mercaptoethanol, 10 mM MgCl2, 100 μM [32γ P]ATP (200 cpm/pmol), 0.5 μM microcystin-LR, 1 mM T308tide in the presence or absence of the indicated concentrations of the 56K-pHM peptide ([…](P)YVAPSV) (SEQ ID NO:104) or 56K-HM. peptide ([…]) (SEQ ID NO:105). After incubation for 10 min at 30° C., 25 μl of the resultant mixture was spotted into P81 phosphocellulose paper (2×2 cm) and the papers washed and analysed as described previously for assays of MAP kinase. Control assays were carried out in parallel in which either PDK1, or peptide substrate were omitted; these values were always less than 5% of the activity measured in the presence of these reagents. One Unit of PDK1 activity was defined as that amount required to catalyse the phosphorylation of 1 nmol of the T308tide in 1 min.
# [24] = molecular target: T5, wild type PDK1 (Homo sapiens, UniProt O15530); assay: Surface plasmon resonance (BiaCore) binding of hydrophobic motif peptides, wild type PDK1; parameters: made in house; host or cells: human embryonic kidney 293 cells (pEBG2T vector); conditions: surface plasmon resonance
# T5 sequence (O15530 1-556): T1 sequence (O15530 1-556)
# Description: Binding and activation of wild type and mutant forms of PDK1 to a phosphopeptide derived from the hydrophobic motif of S6K1. The binding of the wild type (wt) PDK1 and indicated mutants to a phosphopeptide comprising the hydrophobic motif of S6K1 (S6K-pHM: […]*YVAPSV, where T* indicates phospho-threonine, SEQ ID NO:104) was analysed by surface plasmon resonance as described in the Materials and Methods.
# A. The sensor chip SA was coated with 12RUs of the biotinylated S6K-pHM peptide and the binding was analysed following injection of 270 nM wild type PDK1, PDK1 [T148A] and PDK1 [K76A]. […] (data not shown).
# B. As in A. except that binding was analysed over a range of PDK1 concentrations (2-2150 nM). The response level at the steady state binding is plotted versus the log of the PDK1 concentration. The estimated Kd was obtained by fitting the data to a sigmoid curve using Kaleidagraph software.
# Binding was analysed in a BiaCore 3000 system (BiaCore AB, Stevenage, UK). Biotinylated S6K-pHM (Biotin-C12-[…](P)YVAPSV) (SEQ ID NO:104) or the non-phosphorylated form of this peptide S6K-HM was bound to an streptavidin-coated Sensor chip (SA) (12 response units, RU). 30 μl of wild type or the indicated mutant GST-PDK1 were injected at a flow rate of 30 μl/min, in buffer HBS-P (10 mM HEPES pH 7.4, 0.15M NaCl, 0.005% (by vol) polysorbate-20) supplemented with 1 mM DTT. Specific interactions between 56K-pHM and PDK1 proteins were obtained between the concentration range of 2-2150 nM PDK1. Steady state binding was determined at each concentration. Dissociation of PDK1 from the phospho-peptide was monitored over a 1 min period. Regeneration of the sensor chip surface was performed with 1{tilde over (0)} μl injections of 0.05% SDS. […] (RUmax=435). For all PDK1 construct tested, the off rates for S6Kp-HM were high in comparison to those of PIFtide binding with the time taken for 50% dissociation to occur for 56K-pHM is 30s compared to 1000s for PIFtide.
# MSK1, sequence (O75582 whole entry): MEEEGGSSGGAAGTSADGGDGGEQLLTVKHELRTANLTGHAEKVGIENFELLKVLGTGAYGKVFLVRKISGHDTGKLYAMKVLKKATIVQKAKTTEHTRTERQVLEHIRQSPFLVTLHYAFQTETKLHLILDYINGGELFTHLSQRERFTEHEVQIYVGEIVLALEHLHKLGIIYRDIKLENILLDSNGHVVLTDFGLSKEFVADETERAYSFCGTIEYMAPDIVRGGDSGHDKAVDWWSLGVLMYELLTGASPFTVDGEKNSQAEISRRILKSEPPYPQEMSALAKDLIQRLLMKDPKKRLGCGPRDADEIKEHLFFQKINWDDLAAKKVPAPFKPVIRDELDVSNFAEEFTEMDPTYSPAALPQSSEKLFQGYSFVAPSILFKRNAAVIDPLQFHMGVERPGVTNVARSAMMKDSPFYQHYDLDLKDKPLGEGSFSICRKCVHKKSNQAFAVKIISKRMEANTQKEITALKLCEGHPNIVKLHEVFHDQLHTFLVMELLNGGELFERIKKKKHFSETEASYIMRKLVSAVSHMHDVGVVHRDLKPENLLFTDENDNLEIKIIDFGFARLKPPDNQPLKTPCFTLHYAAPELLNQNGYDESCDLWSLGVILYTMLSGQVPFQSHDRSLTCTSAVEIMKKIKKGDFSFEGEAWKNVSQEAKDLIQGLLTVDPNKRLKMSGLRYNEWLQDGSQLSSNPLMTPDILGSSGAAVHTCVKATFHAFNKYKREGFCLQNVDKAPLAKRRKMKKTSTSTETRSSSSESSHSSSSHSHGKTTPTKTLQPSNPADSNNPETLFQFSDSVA
# ROCK-II, sequence (O75116 whole entry, species assumed): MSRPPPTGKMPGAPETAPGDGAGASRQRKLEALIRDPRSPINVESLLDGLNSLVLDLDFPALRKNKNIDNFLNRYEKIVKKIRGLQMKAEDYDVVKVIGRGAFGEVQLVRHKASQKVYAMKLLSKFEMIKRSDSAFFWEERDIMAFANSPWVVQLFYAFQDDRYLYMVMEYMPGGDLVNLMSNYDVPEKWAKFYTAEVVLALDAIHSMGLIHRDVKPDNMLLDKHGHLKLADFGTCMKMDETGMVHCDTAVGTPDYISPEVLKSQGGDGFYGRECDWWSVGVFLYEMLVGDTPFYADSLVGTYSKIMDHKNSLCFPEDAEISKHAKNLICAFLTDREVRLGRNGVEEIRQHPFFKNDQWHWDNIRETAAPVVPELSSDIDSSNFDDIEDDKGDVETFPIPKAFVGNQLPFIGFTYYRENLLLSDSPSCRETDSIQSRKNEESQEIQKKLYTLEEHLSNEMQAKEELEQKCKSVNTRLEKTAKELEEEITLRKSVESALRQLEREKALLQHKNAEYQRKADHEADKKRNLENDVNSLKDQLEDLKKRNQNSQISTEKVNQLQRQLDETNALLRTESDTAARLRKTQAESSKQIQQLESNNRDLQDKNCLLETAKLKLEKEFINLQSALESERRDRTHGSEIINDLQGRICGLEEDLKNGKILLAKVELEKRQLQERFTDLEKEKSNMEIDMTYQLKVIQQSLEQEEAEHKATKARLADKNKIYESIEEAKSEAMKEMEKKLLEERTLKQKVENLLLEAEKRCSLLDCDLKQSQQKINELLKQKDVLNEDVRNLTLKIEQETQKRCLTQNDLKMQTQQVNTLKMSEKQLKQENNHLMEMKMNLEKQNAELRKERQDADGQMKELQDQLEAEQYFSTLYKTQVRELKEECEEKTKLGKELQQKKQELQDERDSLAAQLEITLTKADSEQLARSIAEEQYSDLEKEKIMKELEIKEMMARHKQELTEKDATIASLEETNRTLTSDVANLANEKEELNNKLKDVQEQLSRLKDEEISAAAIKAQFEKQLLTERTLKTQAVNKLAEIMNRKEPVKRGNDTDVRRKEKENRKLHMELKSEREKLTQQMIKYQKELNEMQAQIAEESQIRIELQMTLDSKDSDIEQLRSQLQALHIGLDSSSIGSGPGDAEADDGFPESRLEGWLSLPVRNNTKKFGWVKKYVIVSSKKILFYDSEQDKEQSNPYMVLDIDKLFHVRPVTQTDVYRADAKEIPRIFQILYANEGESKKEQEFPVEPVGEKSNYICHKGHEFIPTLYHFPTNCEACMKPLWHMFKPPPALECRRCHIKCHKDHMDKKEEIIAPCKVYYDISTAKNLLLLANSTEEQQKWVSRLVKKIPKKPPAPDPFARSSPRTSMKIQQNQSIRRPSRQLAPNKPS
# SAPK4/p38δ, sequence (O15264 whole entry): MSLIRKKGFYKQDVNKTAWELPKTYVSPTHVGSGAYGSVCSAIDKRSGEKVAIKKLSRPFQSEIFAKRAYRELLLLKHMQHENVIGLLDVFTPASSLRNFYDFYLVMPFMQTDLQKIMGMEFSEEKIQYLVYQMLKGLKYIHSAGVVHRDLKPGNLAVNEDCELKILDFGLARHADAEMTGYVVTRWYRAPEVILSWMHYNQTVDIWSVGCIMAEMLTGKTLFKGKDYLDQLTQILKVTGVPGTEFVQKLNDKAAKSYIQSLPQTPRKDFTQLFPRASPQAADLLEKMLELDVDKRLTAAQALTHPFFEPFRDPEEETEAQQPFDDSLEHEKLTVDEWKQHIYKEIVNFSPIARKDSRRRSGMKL
# SAPK2α/p38, sequence (Q16539 whole entry): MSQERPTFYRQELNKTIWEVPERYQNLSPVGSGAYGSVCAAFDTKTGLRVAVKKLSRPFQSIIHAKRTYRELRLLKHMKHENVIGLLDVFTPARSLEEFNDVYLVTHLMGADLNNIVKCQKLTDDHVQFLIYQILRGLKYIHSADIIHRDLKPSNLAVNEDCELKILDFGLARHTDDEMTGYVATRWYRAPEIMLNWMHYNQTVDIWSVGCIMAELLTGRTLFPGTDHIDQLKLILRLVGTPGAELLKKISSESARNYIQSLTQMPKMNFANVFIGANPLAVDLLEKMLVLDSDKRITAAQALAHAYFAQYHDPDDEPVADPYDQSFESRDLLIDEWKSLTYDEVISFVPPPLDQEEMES
# PRAK, sequence (Q8IW41 whole entry, species assumed): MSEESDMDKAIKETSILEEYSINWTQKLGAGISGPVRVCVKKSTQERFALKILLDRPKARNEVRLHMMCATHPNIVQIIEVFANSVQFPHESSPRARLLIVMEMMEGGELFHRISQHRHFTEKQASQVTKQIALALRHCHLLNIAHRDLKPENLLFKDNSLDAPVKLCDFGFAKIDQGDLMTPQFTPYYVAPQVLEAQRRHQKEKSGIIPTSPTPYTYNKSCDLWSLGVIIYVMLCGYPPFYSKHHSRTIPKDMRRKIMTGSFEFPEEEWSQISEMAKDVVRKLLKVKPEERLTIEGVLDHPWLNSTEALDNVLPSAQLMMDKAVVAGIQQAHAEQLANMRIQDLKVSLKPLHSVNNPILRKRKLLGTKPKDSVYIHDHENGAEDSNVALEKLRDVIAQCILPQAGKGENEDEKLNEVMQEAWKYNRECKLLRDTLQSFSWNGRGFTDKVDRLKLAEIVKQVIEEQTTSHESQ
# CK2, sequence (P68400 whole entry): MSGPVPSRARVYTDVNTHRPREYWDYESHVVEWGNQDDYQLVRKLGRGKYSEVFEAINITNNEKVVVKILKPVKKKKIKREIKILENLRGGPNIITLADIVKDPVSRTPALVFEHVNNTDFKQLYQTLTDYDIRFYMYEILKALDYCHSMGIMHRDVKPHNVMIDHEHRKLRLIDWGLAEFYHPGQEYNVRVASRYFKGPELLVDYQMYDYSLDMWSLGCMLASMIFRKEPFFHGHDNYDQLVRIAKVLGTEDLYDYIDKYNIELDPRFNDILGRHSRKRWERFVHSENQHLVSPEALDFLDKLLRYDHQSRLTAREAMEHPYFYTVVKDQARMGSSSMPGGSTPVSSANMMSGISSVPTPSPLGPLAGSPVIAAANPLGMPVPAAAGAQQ
# MAPKAP-K1a, sequence (Q15418 whole entry, species assumed): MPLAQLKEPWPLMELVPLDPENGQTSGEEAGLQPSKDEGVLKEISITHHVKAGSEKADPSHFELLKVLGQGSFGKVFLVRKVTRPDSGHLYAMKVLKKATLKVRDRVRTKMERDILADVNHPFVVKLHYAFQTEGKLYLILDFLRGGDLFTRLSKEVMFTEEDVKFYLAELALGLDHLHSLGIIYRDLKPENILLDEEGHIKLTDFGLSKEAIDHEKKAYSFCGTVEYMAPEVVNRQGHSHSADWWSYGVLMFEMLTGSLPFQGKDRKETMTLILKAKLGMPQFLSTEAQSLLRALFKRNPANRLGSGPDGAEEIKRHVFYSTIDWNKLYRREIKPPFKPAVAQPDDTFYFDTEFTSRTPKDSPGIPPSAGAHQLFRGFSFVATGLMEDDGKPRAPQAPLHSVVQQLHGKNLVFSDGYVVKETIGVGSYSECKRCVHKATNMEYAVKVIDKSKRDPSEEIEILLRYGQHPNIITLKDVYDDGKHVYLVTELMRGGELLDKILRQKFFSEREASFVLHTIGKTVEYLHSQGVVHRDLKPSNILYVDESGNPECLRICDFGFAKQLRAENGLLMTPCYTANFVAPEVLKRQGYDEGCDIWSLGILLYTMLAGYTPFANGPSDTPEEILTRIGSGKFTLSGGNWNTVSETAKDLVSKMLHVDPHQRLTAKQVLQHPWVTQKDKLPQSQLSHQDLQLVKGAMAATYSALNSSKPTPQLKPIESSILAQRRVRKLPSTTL
# CSK, sequence (P41240 whole entry, species assumed): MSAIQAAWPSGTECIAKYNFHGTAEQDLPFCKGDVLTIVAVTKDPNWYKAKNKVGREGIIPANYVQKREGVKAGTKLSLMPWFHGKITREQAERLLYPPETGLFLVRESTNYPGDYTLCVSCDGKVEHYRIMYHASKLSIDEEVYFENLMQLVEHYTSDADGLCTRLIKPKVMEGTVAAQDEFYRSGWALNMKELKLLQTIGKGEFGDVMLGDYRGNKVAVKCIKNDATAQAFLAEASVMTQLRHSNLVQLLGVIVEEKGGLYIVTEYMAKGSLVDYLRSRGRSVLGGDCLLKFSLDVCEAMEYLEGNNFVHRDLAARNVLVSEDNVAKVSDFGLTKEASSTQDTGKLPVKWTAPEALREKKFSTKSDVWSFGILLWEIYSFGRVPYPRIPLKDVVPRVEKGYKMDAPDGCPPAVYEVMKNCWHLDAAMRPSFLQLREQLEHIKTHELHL
molecule,measurement,setting,value
"CN[C@@H]1C[C@H]2O[C@@](C)([C@@H]1OC)n1c3ccccc3c3c4c(c5c6ccccc6n2c5c31)C(=O)NC4 [STO, staurosporine]","percentage of kinase activity compared to control incubations, PDK1",[1],5 ± 1%
same,"percentage of kinase activity compared to control incubations, CHK1",[2],3 ± 1%
same,"percentage of kinase activity compared to control incubations, AMPK",[3],0 ± 0%
same,remaining activity at 1 µM,[4],8 ± 2%
same,"percentage of kinase activity compared to control incubations, ROCK-II",[5],9 ± 5%
same,"percentage of kinase activity compared to control incubations, MSK1",[6],1 ± 0%
same,"percentage of kinase activity compared to control incubations, MSK1",[6]; listed as staurosporine,abolished
same,"percentage of kinase activity compared to control incubations, MKK1",[7],5 ± 8%
same,"percentage of kinase activity compared to control incubations, CSK",[8],25 ± 8%
same,"percentage of kinase activity compared to control incubations, SAPK4/p38δ",[9],40 ± 5%
same,"percentage of kinase activity compared to control incubations, PRAK",[10],48 ± 1%
same,"percentage of kinase activity compared to control incubations, MAPKAP-K1a",[11],18 ± 10%
same,"percentage of kinase activity compared to control incubations, SGK1",[12],51 ± 4%
same,"percentage of kinase activity compared to control incubations, JNKSAPK1c",[13],91 ± 3%
same,"percentage of kinase activity compared to control incubations, SAPK2α/p38",[14],76 ± 4%
same,"percentage of kinase activity compared to control incubations, SAPK2β/p38β2",[15],84 ± 11%
same,"percentage of kinase activity compared to control incubations, CK2",[16],95 ± 4%
same,"percentage of kinase activity compared to control incubations, CK1",[17],95 ± 11%
same,"percentage of kinase activity compared to control incubations, NEK6",[18],109 ± 2%
GST-PDK1[K76A] (from UniProt O15530 1-556) (enzyme),fold lower affinity than wild type PDK1,[19],3 fold
same,Kd,[20],1.7 µM
same,Kd,[21],1.74 µM
S6K-HM: non-phosphorylated S6K-HM peptide (SESANQVFLGFTYVAPSV),activation of PDK1[K76A] by non-phosphorylated peptide,[22],to a similar extent as wild type PDK1
same,activation of PDK1[R131A] by non-phosphorylated peptide,[23],to a similar extent as wild type PDK1
same,binding of wild type PDK1 to peptide,[24],No detectable binding; also recorded: not detectably
